This assay deals with chronic obstructive pulmonary disease-model animal. The experiment in a line: Drug efficacy evaluation in the chronic obstructive pulmonary disease-model animal (change of respiratory function).
Where [1] appears, read: 10 mg/kg orally 1 hour before cigarette solution and LPS solution, guinea-pig, average values of 6 animals.

Consider `Cn1c(=O)c2[nH]cnc2n(C)c1=O` [Theophylline, theophylline], for which, under setting [1], the Peak expiratory flow amounted to 19.0 mL/s, the Respiratory minute rate stood at 124 breaths/min, the Respiratory minute volume amounted to 457 mL/min and the Tidal volume amounted to 3.7 mL. Also, the “Effect on respiration function (in words)” value (10 mg/kg orally, COPD-model guinea-pig) is “improvement effect of respiration function”.

Values taken from patent publication US20080072338A1, “Animal for Drug Efficacy Evaluation, Method for Developing Chronic Obstructive Pulmonary Disease in Animal for Drug Efficacy Evaluation, and Method for Evaluating Drug Efficacy Using the Animal” (priority 2004, published 2008).
